This note sets out measurements from the kinase profiling compilation of Christmann-Franck et al. (2016).

Targets include STK25 (human) (UniProt O00506); ZAP70 (human) (UniProt P43403); CDC42BPG (human) (UniProt Q6DT37); MARK1 (human) (UniProt Q9P0L2); INSR (human) (UniProt P06213); PKMYT1 (human) (UniProt Q99640); PRKX (human) (UniProt P51817); PRKD2 (human) (UniProt Q9BZL6); ULK1 (human) (UniProt O75385); EPHB4 (human) (UniProt P54760); MAPK14 (human) (UniProt Q16539); STK36 (human) (UniProt Q9NRP7); RET (human) (UniProt P07949); MAPK1 (human) (UniProt P28482); MAPK7 (human) (UniProt Q13164); MAPK10 (human) (UniProt P53779); MAP2K1 (human) (UniProt Q02750); EPHA5 (human) (UniProt P54756); RPS6KA5 KD1 (human) (UniProt O75582); RPS6KA6 KD1 (human) (UniProt Q9UK32); IKBKE (human) (UniProt Q14164); FLT4 (human) (UniProt P35916); EPHB1 (human) (UniProt P54762); RPS6KA2 KD1 (human) (UniProt Q15349); MAP4K3 (human) (UniProt Q8IVH8); ADCK4 (human) (UniProt Q96D53); CDC42BPA (human) (UniProt Q5VT25); STK35 (human) (UniProt Q8TDR2); EPHB3 (human) (UniProt P54753); FGFR1 (human) (UniProt P11362); MAPK9 (human) (UniProt P45984); NEK5 (human) (UniProt Q6P3R8); HCK (human) (UniProt P08631); MAP4K5 (human) (UniProt Q9Y4K4); PAK4 (human) (UniProt O96013); MYO3B (human) (UniProt Q8WXR4); MYLK2 (human) (UniProt Q9H1R3); FGFR2 (human) (UniProt P21802); CAMK2B (human) (UniProt Q13554).

Holding throughout (experiment): KINOMEscan competition binding
Common to all, as to details: compound 10.0 µM

Assay [1] deals with ABL1 (human), P00519 [Q252H].
Assay [2] relates to RET (human), P07949 [V804L].
The subject of assay [3] is ABL1 (human), P00519 [Y253F].

Chain of ULK1 (human) (O75385 whole entry, looked up): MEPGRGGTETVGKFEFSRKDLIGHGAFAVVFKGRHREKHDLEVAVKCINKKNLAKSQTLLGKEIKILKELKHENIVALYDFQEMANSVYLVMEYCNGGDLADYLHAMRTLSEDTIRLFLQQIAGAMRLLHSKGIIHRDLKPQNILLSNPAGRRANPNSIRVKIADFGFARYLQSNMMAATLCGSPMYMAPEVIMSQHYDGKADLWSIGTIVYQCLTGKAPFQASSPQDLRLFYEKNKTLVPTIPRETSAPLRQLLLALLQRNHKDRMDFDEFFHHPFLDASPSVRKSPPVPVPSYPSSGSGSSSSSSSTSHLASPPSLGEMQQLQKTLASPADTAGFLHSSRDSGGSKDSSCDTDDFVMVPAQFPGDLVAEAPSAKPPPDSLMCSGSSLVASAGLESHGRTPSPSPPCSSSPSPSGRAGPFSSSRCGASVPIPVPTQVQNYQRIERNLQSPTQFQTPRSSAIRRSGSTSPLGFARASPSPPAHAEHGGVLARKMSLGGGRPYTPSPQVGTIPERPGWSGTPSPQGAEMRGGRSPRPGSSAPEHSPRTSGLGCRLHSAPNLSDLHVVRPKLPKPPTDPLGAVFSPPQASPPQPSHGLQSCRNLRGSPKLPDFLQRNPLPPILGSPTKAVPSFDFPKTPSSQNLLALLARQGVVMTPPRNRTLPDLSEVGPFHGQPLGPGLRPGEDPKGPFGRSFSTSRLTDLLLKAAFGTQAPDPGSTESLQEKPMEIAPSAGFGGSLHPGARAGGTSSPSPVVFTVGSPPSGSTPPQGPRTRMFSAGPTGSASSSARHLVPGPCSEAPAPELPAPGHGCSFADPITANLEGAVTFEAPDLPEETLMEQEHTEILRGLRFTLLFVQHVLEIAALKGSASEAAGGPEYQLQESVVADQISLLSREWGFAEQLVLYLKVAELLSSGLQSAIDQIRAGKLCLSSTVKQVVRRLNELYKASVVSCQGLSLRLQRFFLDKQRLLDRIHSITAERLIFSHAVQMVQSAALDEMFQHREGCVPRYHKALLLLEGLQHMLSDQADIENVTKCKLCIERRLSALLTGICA
Chain of MAPK9 (human) (P45984 whole entry, looked up): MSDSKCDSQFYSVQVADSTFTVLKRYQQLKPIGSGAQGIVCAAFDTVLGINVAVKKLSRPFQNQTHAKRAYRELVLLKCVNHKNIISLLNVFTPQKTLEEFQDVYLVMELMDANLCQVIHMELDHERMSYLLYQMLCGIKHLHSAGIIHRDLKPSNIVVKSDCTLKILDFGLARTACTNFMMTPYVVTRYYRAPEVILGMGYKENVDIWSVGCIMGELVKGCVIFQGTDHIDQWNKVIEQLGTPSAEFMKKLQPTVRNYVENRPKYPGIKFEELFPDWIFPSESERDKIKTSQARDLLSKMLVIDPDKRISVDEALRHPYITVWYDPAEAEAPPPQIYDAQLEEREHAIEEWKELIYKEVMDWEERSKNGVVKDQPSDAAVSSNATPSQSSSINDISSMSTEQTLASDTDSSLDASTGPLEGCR
Chain of MYLK2 (human) (Q9H1R3 whole entry, looked up): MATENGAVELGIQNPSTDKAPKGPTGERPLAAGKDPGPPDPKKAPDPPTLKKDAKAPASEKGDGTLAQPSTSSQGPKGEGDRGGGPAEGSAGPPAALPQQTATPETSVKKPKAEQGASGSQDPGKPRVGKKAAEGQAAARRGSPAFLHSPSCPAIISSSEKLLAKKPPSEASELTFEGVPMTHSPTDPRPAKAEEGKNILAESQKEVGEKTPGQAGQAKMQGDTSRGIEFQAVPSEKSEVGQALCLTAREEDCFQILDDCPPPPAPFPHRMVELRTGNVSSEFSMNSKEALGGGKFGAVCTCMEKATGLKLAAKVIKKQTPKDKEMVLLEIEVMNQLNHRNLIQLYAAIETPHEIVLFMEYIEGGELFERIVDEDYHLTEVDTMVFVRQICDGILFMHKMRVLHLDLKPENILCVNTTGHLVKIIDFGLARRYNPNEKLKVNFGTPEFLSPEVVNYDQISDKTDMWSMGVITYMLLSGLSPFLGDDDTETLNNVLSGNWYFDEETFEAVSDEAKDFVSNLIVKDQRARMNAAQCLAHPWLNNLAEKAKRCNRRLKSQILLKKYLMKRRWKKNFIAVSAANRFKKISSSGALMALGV
Chain of PRKD2 (human) (Q9BZL6 whole entry, looked up): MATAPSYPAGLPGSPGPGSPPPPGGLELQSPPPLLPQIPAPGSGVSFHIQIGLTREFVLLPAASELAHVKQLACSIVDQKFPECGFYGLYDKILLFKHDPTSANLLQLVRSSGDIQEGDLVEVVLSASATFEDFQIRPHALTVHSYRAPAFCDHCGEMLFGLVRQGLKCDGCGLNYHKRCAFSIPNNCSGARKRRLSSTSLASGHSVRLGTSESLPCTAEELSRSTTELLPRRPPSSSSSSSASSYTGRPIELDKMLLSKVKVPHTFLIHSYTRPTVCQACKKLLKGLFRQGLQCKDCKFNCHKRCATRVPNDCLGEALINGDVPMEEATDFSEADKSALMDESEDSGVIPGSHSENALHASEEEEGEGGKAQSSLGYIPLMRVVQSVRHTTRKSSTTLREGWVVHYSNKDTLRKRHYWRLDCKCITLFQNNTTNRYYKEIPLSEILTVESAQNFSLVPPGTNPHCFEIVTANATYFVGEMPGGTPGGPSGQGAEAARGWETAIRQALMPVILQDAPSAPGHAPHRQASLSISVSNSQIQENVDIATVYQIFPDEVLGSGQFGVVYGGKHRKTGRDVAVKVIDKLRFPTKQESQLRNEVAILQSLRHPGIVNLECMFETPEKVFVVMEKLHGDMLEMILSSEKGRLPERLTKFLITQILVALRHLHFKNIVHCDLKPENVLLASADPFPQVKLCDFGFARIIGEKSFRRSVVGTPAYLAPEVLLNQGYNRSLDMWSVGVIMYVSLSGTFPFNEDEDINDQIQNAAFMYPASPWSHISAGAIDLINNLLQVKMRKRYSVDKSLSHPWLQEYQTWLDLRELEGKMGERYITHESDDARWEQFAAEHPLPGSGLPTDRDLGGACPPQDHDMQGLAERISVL
Chain of CAMK2B (human) (Q13554 whole entry, looked up): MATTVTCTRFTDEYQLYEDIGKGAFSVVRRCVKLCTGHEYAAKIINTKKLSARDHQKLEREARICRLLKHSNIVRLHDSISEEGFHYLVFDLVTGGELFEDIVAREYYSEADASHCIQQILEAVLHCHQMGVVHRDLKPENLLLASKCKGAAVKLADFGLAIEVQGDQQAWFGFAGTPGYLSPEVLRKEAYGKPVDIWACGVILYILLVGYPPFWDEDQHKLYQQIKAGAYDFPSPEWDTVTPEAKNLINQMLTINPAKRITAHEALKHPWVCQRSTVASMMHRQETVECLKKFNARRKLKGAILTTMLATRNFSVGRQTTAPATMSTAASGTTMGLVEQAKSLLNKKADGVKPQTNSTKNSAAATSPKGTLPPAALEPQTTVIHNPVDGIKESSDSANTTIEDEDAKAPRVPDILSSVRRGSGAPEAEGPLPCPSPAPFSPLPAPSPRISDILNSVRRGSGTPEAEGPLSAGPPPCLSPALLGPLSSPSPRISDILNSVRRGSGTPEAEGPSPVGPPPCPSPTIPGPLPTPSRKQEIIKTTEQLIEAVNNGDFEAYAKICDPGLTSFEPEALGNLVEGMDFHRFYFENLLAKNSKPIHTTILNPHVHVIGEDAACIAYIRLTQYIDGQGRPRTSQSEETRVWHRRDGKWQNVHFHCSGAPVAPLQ
Chain of STK25 (human) (O00506 whole entry, looked up): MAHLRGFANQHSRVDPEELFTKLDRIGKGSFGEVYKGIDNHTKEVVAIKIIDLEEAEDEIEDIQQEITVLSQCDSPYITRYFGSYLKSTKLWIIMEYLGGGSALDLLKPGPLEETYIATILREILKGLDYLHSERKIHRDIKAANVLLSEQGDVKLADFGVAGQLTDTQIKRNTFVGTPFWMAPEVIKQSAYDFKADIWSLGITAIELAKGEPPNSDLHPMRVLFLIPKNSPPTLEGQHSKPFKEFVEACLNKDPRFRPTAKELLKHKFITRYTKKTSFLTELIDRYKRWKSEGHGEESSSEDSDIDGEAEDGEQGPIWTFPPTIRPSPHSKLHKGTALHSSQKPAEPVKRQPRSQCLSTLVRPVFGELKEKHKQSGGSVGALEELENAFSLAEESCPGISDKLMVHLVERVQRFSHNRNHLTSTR
Chain of MAPK10 (human) (P53779 whole entry, looked up): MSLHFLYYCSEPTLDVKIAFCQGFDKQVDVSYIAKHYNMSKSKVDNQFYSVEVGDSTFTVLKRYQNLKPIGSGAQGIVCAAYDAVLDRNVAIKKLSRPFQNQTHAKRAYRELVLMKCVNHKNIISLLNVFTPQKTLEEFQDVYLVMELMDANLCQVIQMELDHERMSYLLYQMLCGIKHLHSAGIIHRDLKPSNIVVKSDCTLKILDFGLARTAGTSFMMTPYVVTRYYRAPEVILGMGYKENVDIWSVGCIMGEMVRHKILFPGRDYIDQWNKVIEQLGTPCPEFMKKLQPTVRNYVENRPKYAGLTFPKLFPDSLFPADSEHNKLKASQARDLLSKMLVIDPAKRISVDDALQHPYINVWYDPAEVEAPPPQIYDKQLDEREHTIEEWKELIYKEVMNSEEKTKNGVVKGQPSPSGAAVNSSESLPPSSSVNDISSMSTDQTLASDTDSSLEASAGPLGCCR
Chain of MAP2K1 (human) (Q02750 whole entry, looked up): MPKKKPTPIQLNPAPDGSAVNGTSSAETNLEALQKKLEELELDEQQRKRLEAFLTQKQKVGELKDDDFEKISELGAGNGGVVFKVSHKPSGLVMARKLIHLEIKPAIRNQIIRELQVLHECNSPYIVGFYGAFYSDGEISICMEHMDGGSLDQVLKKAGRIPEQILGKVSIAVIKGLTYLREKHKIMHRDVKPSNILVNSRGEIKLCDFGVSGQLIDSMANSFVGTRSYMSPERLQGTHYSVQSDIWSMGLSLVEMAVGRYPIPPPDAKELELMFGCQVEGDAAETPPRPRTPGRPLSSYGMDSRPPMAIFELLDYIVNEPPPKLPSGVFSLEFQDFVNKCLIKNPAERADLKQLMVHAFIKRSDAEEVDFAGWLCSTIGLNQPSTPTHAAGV

In the case of `O=C1NC(=O)/C(=C/c2c[nH]c(=O)c(-c3ccc(N4CCNCC4)nc3)c2)S1`, the kinase still bound, per cent of control at STK25 (human) amounted to 77%; on ZAP70 (human), 61%; on CDC42BPG (human), 88%; on MARK1 (human), 100%; on INSR (human), 54%; on PKMYT1 (human), 100%. The kinase still bound, per cent of control in assay [1] turned out to be 53%; on PRKX (human), 100%; on PRKD2 (human), 8.3%; on ULK1 (human), 21%; at EPHB4 (human) it was 100%; on MAPK14 (human), 100%. For the same compound, the kinase still bound, per cent of control on STK36 (human) was 85%; on RET (human), 70%; at MAPK1 (human), 97%; on MAPK7 (human), 48%; at MAPK10 (human) it was 77%; at MAP2K1 (human), 55%. In addition, the kinase still bound, per cent of control on EPHA5 (human) stood at 100%; on RPS6KA5 KD1 (human) it was 100%; at RPS6KA6 KD1 (human), 34%; on IKBKE (human), 62%; on FLT4 (human), 90%; at EPHB1 (human), 95%. The kinase still bound, per cent of control was 64% on RPS6KA2 KD1 (human); 53% at MAP4K3 (human); 80% at ADCK4 (human); 70% in assay [2]; 73% on CDC42BPA (human); 79% at STK35 (human). Also, the kinase still bound, per cent of control on EPHB3 (human) turned out to be 91%; on FGFR1 (human), 100%; at MAPK9 (human) it was 100%; on NEK5 (human), 100%; on HCK (human), 100%; at MAP4K5 (human), 52%. Further, the kinase still bound, per cent of control on PAK4 (human) stood at 98%; on MYO3B (human), 74%; at MYLK2 (human) it was 14%; in [3] it was 95%; on FGFR2 (human) it was 100%; on CAMK2B (human) it was 47%.

As to `O=C1NC(=S)S/C1=C\c1ccc(-c2cncc3ccccc23)o1`, the kinase still bound, per cent of control on STK25 (human) is 20%; at MAPK10 (human), 12%; at FLT4 (human), 28%; at MAPK9 (human), 20%; at MYO3B (human), 26%; at CAMK2B (human) it was 22%.

In turn, `CS(=O)(=O)Nc1ccc(-c2cc(/C=C3\SC(=N)NC3=O)c[nH]c2=O)cc1` registered a kinase still bound, per cent of control at PRKD2 (human) of 32%.

In turn, `Nc1cccc(-c2cc(/C=C3\SC(=O)NC3=O)c[nH]c2=O)c1` displayed a kinase still bound, per cent of control on IKBKE (human) of 29%.

For `CS(=O)(=O)Nc1ccc(-c2ncc(/C=C3\SC(=N)NC3=O)s2)cc1`, the kinase still bound, per cent of control in [1] came out at 28%; at ULK1 (human), 33%; on STK36 (human), 20%; at RET (human) it was 20%; on FLT4 (human), 3.6%.

As to `N=C1NC(=O)/C(=C/c2ccc(-c3ccc(C(N)=O)cc3O)o2)S1`, at ZAP70 (human), the kinase still bound, per cent of control worked out at 25%.

On to `CN1C(=O)[C@H]2CCC[C@H]2N(C2CCCC2)c2nc(Nc3ccc(C(N)=O)cc3)ncc21`, for which the kinase still bound, per cent of control on MAPK7 (human) stood at 0.1%; at RPS6KA6 KD1 (human), 30%; on RPS6KA2 KD1 (human) it was 24%; at NEK5 (human) it was 9%; at MYLK2 (human), 15%.

On to `N=C1NC(=O)/C(=C/c2ccc(-c3cncc4ccccc34)o2)S1`, for which the kinase still bound, per cent of control on STK25 (human) came out at 18%; at PRKD2 (human), 8.1%; at MAPK10 (human), 3%; at MAP2K1 (human), 26%; at RPS6KA2 KD1 (human) it was 26%; in assay [2], 23%. For the same compound, the kinase still bound, per cent of control at MAPK9 (human) was 14%; at PAK4 (human), 18%; on MYLK2 (human), 12%; at CAMK2B (human), 17%.

With `CSC1=NC(=O)/C(=C/c2c[nH]c(=O)c(-c3ccc(NS(C)(=O)=O)cc3)c2)S1`, at ULK1 (human), the kinase still bound, per cent of control worked out at 23%.

At MAPK1 (human), `N=C1NC(=O)/C(=C/c2ccc(-c3csc4ccccc34)o2)S1` had a kinase still bound, per cent of control of 29%.

For the compound `CS(=O)(=O)Nc1ccc(-c2cncc(/C=C3\SC(=N)NC3=O)c2)cc1`, the kinase still bound, per cent of control on FLT4 (human) came out at 28%; on MAP4K3 (human), 32%; at STK35 (human) it was 30%; on MAP4K5 (human), 12%.

With `N=C1NC(=O)/C(=C/c2c[nH]c(=O)c(-c3ccc(N4CCNCC4)nc3)c2)S1`, the kinase still bound, per cent of control on PRKD2 (human) came out at 0.1%; at ULK1 (human), 33%.
